Reference: patent publication US20120003270A1, “6-SUBSTITUTED ISOFLAVONOID COMPOUNDS AND USES THEREOF” (priority 2008, published 2012)

What was measured:
[1] = tested on: low density lipoprotein (LDL); test: Cu2+-induced oxidation of LDL (FOX assay); assay type: biochemical; parameters: lipid peroxide formation: unit not given here; settings: for IC50: LDL 0.1 mg/mL, CuSO4 5 μM, read-out: IC50, concentration at which 50% of the LDL oxidation was inhibited
Method: Blood was collected by venipuncture and plasma separated by centrifugation. LDL was then isolated from plasma using a 4-step sodium chloride density gradient and ultracentrifuged at 200,000 g for 20 hours at 4° C. The collect LDL was purified by passage through gel filtration PD10 column to remove excess salt and EDTA, and stored in the dark at 4° C. to prevent auto-oxidation and used with two weeks of isolation. The LDL cholesterol content was measure using a standard enzymatic method and protein concentration determined by the Lowry method using BSA as the standard.
On the day of each experiment a 2 mL aliquot of LDL was passed through a second PD10 column and diluted with chelex treated PBS (100 mM) to give a standard protein concentration of 0.1 mg/mL, ie final concentration per reaction. Oxidation reactions were initiated by the addition of freshly prepared Cu^2+ solution, such that the final concentration of CuSO4 was 5 μM. […] The extent of lipoprotein oxidation was determined by measuring the formation of lipid-peroxides on aliquots removed every 30-minute over a 3-hour period. Peroxides were determined at each time point by the ferrous oxidation-xylenol orange (FOX) assay using standard hydrogen peroxide curve (5 to 200 μM). Compound (1) was examined in at least two separate experiments performed on separate days.

[2] = tested on: VCAM-1; test: TNFα-induced VCAM-1 expression in HAECs (ELISA); assay type: cell-based, human; settings: TNFα-stimulated HAECs, 405 nm
Method: Inhibition of TNFα-stimulated endothelial cell activation was assessed by measuring surface expression of cell adhesion molecules with an ELISA method. Human arterial endothelial cells (HAEC) in growth medium (Cell Applications Inc.) were seeded into 96-well plates at a density of 10,000 cells per well. Plates were incubated overnight at 37° C. in a humidified incubator to allow for cells to become confluent. On the morning of the experiment, TNFα (10 μl, 2 ng/ml) was added to each well, which contained 100 μl of medium. Test compounds were diluted in DMSO-containing medium (2.5% DMSO) to give a concentration of 100 and 300 μM. They were added to wells so that final concentrations were 10 and 30 μM. DMSO-containing medium alone was added to zero concentration control wells. All samples were measured in quadruplicate (4 wells per treatment).
After incubation with a compound of the formula (I), the medium was removed and cells were probed with either non-specific IgG or specific mouse antibodies (VCAM (BD Biosciences −0.1 μg in 100 μL buffered saline with 10% heat-inactivated human serum)).
Adhesion molecule expression was detected by addition of sheep anti-mouse antibody/horseradish peroxidase conjugate. Plates were allowed to stand for 30 minutes—monolayers were then washed, and sheep anti-mouse antibody/horseradish peroxidase conjugate (1:500 in 100 μL HBSS with 10% heat-inactivated human serum and 0.05% Tween 20) was added and left for 30 minutes. After further washing, 150 μL, ABTS substrate (Kirkegaard and Perry Laboratories) was added to each well and allowed to develop for 15 minutes. Optical density was measured at 405 nm with an ELISA reader (Titertek Multiscan, Flow Laboratories).

[3] = tested on: neonatal fibroblast foreskin (NFF); test: Toxicity in normal cells (MTT), NFF; assay type: cell-based; settings: Homo sapiens, 120 h, 5 days, top concentration 150 μM, read-out: Normal cell viability IC50
Method: Human neonatal fibroblast foreskin (NFF—a gift from Dr. Peter Parsons, Queensland Institute of Medical Research) or rabbit kidney (RK-13—a gift from Prof. Miller Whalley, Macquarie University) cells were seeded into 96 well plates and cultured in RPMI supplemented with 10% FCS (CSL, Australia), penicillin (100 U/ml), streptomycin ([…]), L-glutamine (2 mM) and sodium bicarbonate (1.2 g/L) at 37° C. and 5% CO2 for 24 hours until cells had attached and entered log phase of growth. Test compounds were added in serial two-fold dilutions from 150 μM in triplicate and incubated for a further 5 days. MTT was then added to each well, incubated for 3 hours at 37° C., after which the medium was tipped off. Following the addition of DMSO, the absorbance for each well was read on a plate reader. The assays were repeated at least twice.

O=C(O)C1CCCN1Cc1cc2c(cc1O)OCC(c1ccc(O)cc1)=C2 (centres unmarked) [Compound (3)] gave a lipid peroxide formation ([1]; Compound (3) 10 μM + Cu++ 5 μM, no LDL, 0 min) of 2.36 ± 5.25, a lipid peroxide formation ([1]; Compound (3) 10 μM + Cu++ 5 μM, no LDL, 30 min) of −3.75 ± 3.02 and a lipid peroxide formation ([1]; Compound (3) 10 μM + Cu++ 5 μM, no LDL, 60 min) of −1.38 ± 2.64. It also gave a lipid peroxide formation ([1]; Compound (3) 10 μM + Cu++ 5 μM, no LDL, 90 min) of −0.82 ± 2.31, a lipid peroxide formation ([1]; Compound (3) 10 μM + Cu++ 5 μM, no LDL, 120 min) of −2.48 ± 2.55 and a lipid peroxide formation ([1]; Compound (3) 10 μM + Cu++ 5 μM, no LDL, 150 min) of −6.22 ± 6.83. It also gave an IC50 [1] of 500 nM, a lipid peroxide formation ([1]; LDL 0.1 mg/ml + compound (3) 0.01 μM + Cu++ 5 μM, 0 min) of 5.55 ± 0.22 and a lipid peroxide formation ([1]; LDL 0.1 mg/ml + compound (3) 0.01 μM + Cu++ 5 μM, 30 min) of 2.85 ± 2.80. For the same compound, the lipid peroxide formation ([1]; LDL 0.1 mg/ml + compound (3) 0.01 μM + Cu++ 5 μM, 60 min) was 25.92 ± 13.53, the lipid peroxide formation ([1]; LDL 0.1 mg/ml + compound (3) 0.01 μM + Cu++ 5 μM, 90 min) was 88.97 ± 3.03 and the lipid peroxide formation ([1]; LDL 0.1 mg/ml + compound (3) 0.01 μM + Cu++ 5 μM, 120 min) was 131.94 ± 4.81. The lipid peroxide formation ([1]; LDL 0.1 mg/ml + compound (3) 0.01 μM + Cu++ 5 μM, 150 min) was 137.86 ± 26.03, the lipid peroxide formation ([1]; LDL 0.1 mg/ml + compound (3) 0.1 μM + Cu++ 5 μM, 0 min) was 5.62 ± 0.85 and the lipid peroxide formation ([1]; LDL 0.1 mg/ml + compound (3) 0.1 μM + Cu++ 5 μM, 30 min) was 3.24 ± 1.93. It also gave a lipid peroxide formation ([1]; LDL 0.1 mg/ml + compound (3) 0.1 μM + Cu++ 5 μM, 60 min) of 18.89 ± 7.84, a lipid peroxide formation ([1]; LDL 0.1 mg/ml + compound (3) 0.1 μM + Cu++ 5 μM, 90 min) of 73.79 ± 1.40 and a lipid peroxide formation ([1]; LDL 0.1 mg/ml + compound (3) 0.1 μM + Cu++ 5 μM, 120 min) of 138.28 ± 2.75. For the same compound, the lipid peroxide formation ([1]; LDL 0.1 mg/ml + compound (3) 0.1 μM + Cu++ 5 μM, 150 min) was 155.66 ± 21.85, the lipid peroxide formation ([1]; LDL 0.1 mg/ml + compound (3) 1.0 μM + Cu++ 5 μM, 0 min) was 7.38 ± 2.69 and the lipid peroxide formation ([1]; LDL 0.1 mg/ml + compound (3) 1.0 μM + Cu++ 5 μM, 30 min) was −2.09 ± 9.59. For the same compound, the lipid peroxide formation ([1]; LDL 0.1 mg/ml + compound (3) 1.0 μM + Cu++ 5 μM, 60 min) was 7.21 ± 4.53, the lipid peroxide formation ([1]; LDL 0.1 mg/ml + compound (3) 1.0 μM + Cu++ 5 μM, 90 min) was 7.13 ± 3.76 and the lipid peroxide formation ([1]; LDL 0.1 mg/ml + compound (3) 1.0 μM + Cu++ 5 μM, 120 min) was 11.69 ± 7.30. For the same compound, the lipid peroxide formation ([1]; LDL 0.1 mg/ml + compound (3) 1.0 μM + Cu++ 5 μM, 150 min) was 79.63 ± 27.82, the lipid peroxide formation ([1]; LDL 0.1 mg/ml + compound (3) 10 μM + Cu++ 5 μM, 0 min) was 1.62 ± 4.14 and the lipid peroxide formation ([1]; LDL 0.1 mg/ml + compound (3) 10 μM + Cu++ 5 μM, 30 min) was 2.59 ± 2.96. The lipid peroxide formation ([1]; LDL 0.1 mg/ml + compound (3) 10 μM + Cu++ 5 μM, 60 min) was 5.65 ± 2.55, the lipid peroxide formation ([1]; LDL 0.1 mg/ml + compound (3) 10 μM + Cu++ 5 μM, 90 min) was 4.40 ± 1.13 and the lipid peroxide formation ([1]; LDL 0.1 mg/ml + compound (3) 10 μM + Cu++ 5 μM, 120 min) was 3.57 ± 2.23. For the same compound, the lipid peroxide formation ([1]; LDL 0.1 mg/ml + compound (3) 10 μM + Cu++ 5 μM, 150 min) was 4.15 ± 2.87, the “VCAM-1 expression, Absorbance” value ([2]; 10 μM) was 0.161 ± 0.16 and the “VCAM-1 expression, Absorbance” value ([2]; 30 μM) was 0.215 ± 0.018. The IC50 [3] was 111 ± 67.1 µM.
CN(C)Cc1cc2c(cc1O)OCC(c1ccc(O)cc1)=C2 [Compound (1)] was tested, and the lipid peroxide formation ([1]; Compound (1) 100 μM + Cu++ 5 μM, no LDL, 0 min) was 10.13 ± 2.82, the lipid peroxide formation ([1]; Compound (1) 100 μM + Cu++ 5 μM, no LDL, 30 min) was 32.09 ± 11.15 and the lipid peroxide formation ([1]; Compound (1) 100 μM + Cu++ 5 μM, no LDL, 60 min) was 46.21 ± 20.68. The lipid peroxide formation ([1]; Compound (1) 100 μM + Cu++ 5 μM, no LDL, 90 min) was 58.19 ± 28.98, the lipid peroxide formation ([1]; Compound (1) 100 μM + Cu++ 5 μM, no LDL, 120 min) was 69.46 ± 35.33 and the lipid peroxide formation ([1]; Compound (1) 100 μM + Cu++ 5 μM, no LDL, 180 min) was 76.60 ± 40.17. It also gave an IC50 [1] of 580 nM, a lipid peroxide formation ([1]; LDL 0.1 mg/ml + compound (1) 0.1 μM + Cu++ 5 μM, 0 min) of 11.54 ± 1.96 and a lipid peroxide formation ([1]; LDL 0.1 mg/ml + compound (1) 0.1 μM + Cu++ 5 μM, 30 min) of 14.50 ± 0.28. It also gave a lipid peroxide formation ([1]; LDL 0.1 mg/ml + compound (1) 0.1 μM + Cu++ 5 μM, 60 min) of 26.86 ± 0.65, a lipid peroxide formation ([1]; LDL 0.1 mg/ml + compound (1) 0.1 μM + Cu++ 5 μM, 90 min) of 89.43 ± 17.03 and a lipid peroxide formation ([1]; LDL 0.1 mg/ml + compound (1) 0.1 μM + Cu++ 5 μM, 120 min) of 161.78 ± 1.44. For the same compound, the lipid peroxide formation ([1]; LDL 0.1 mg/ml + compound (1) 0.1 μM + Cu++ 5 μM, 180 min) was 193.20 ± 25.05, the lipid peroxide formation ([1]; LDL 0.1 mg/ml + compound (1) 1.0 μM + Cu++ 5 μM, 0 min) was 11.31 ± 1.95 and the lipid peroxide formation ([1]; LDL 0.1 mg/ml + compound (1) 1.0 μM + Cu++ 5 μM, 30 min) was 12.83 ± 2.28. The lipid peroxide formation ([1]; LDL 0.1 mg/ml + compound (1) 1.0 μM + Cu++ 5 μM, 60 min) was 13.11 ± 2.70, the lipid peroxide formation ([1]; LDL 0.1 mg/ml + compound (1) 1.0 μM + Cu++ 5 μM, 90 min) was 14.78 ± 1.06 and the lipid peroxide formation ([1]; LDL 0.1 mg/ml + compound (1) 1.0 μM + Cu++ 5 μM, 120 min) was 20.39 ± 2.95. The lipid peroxide formation ([1]; LDL 0.1 mg/ml + compound (1) 1.0 μM + Cu++ 5 μM, 180 min) was 102.30 ± 37.30, the lipid peroxide formation ([1]; LDL 0.1 mg/ml + compound (1) 10 μM + Cu++ 5 μM, 0 min) was 11.54 ± 1.96 and the lipid peroxide formation ([1]; LDL 0.1 mg/ml + compound (1) 10 μM + Cu++ 5 μM, 30 min) was 16.77 ± 2.55. The lipid peroxide formation ([1]; LDL 0.1 mg/ml + compound (1) 10 μM + Cu++ 5 μM, 60 min) was 19.56 ± 4.55, the lipid peroxide formation ([1]; LDL 0.1 mg/ml + compound (1) 10 μM + Cu++ 5 μM, 90 min) was 20.84 ± 5.30 and the lipid peroxide formation ([1]; LDL 0.1 mg/ml + compound (1) 10 μM + Cu++ 5 μM, 120 min) was 22.80 ± 3.39. It also gave a lipid peroxide formation ([1]; LDL 0.1 mg/ml + compound (1) 10 μM + Cu++ 5 μM, 180 min) of 20.30 ± 4.97, a lipid peroxide formation ([1]; LDL 0.1 mg/ml + compound (1) 100 μM + Cu++ 5 μM, 0 min) of 13.83 ± 1.77 and a lipid peroxide formation ([1]; LDL 0.1 mg/ml + compound (1) 100 μM + Cu++ 5 μM, 30 min) of 29.71 ± 6.85. For the same compound, the lipid peroxide formation ([1]; LDL 0.1 mg/ml + compound (1) 100 μM + Cu++ 5 μM, 60 min) was 39.57 ± 10.67, the lipid peroxide formation ([1]; LDL 0.1 mg/ml + compound (1) 100 μM + Cu++ 5 μM, 90 min) was 78.85 ± 33.54 and the lipid peroxide formation ([1]; LDL 0.1 mg/ml + compound (1) 100 μM + Cu++ 5 μM, 120 min) was 54.24 ± 9.58. For the same compound, the lipid peroxide formation ([1]; LDL 0.1 mg/ml + compound (1) 100 μM + Cu++ 5 μM, 180 min) was 62.50 ± 19.58, the “VCAM-1 expression, Absorbance” value ([2]; 10 μM) was 0.164 ± 0.012 and the “VCAM-1 expression, Absorbance” value ([2]; 30 μM) was 0.208 ± 0.008. The IC50 [3] was 64.1 ± 9.6 µM.
